Assay results from patent publication US20240327353A1.
Like-named read-outs stand apart in the source and are kept apart here.

How the values were obtained:
human wild-type 5-HT2C = human wild-type 5-HT2C (Homo sapiens, UniProt P28335); test: IP-One HTRF IP1 accumulation assay
5-HT2CR [1] = target: T1, 5-HT2CR (Homo sapiens, UniProt P28335); test: biochemical
T1 sequence (P28335 33-458): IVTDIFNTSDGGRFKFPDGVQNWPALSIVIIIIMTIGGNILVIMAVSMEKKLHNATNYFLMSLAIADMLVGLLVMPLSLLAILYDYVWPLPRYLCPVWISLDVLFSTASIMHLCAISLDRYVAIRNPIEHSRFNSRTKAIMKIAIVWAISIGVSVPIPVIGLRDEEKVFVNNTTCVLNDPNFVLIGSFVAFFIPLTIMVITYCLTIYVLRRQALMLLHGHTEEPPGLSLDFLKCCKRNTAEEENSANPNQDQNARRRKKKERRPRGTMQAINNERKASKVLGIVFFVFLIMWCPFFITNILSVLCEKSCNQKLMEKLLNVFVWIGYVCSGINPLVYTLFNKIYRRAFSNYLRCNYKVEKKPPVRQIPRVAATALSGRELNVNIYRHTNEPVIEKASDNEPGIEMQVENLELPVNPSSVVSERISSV

5-HT2BR [2] = target: T2, 5-HT2BR (Homo sapiens, UniProt P41595); test: biochemical
5-HT2CR [3] = target: T1, 5-HT2CR; test: Radioligand binding (competitive displacement and saturation), cell membranes
H1R = target: T3, H1R (Homo sapiens, UniProt P35367); test: as above
T3 construct: host or cells: CHO, transient
Procedure: (§1) Transfections were performed for 48 hours.

5-HT2AR = target: T4, 5-HT2AR (Homo sapiens, UniProt P28223); test: as above; details: for Ki: pKi 5-HT2AR
T4 construct: host or cells: HEK293, transient
Procedure: as §1

5-HT2BR [4] = target: T2, 5-HT2BR; test: as above
5-HT2CR [5] = target: T1, 5-HT2CR
5-HT2BR [6] = target: T2, 5-HT2BR
α1B-adrenergic receptor = target: T5, α1B-adrenergic receptor (Homo sapiens, UniProt P35368)
T5 sequence (P35368 1-520): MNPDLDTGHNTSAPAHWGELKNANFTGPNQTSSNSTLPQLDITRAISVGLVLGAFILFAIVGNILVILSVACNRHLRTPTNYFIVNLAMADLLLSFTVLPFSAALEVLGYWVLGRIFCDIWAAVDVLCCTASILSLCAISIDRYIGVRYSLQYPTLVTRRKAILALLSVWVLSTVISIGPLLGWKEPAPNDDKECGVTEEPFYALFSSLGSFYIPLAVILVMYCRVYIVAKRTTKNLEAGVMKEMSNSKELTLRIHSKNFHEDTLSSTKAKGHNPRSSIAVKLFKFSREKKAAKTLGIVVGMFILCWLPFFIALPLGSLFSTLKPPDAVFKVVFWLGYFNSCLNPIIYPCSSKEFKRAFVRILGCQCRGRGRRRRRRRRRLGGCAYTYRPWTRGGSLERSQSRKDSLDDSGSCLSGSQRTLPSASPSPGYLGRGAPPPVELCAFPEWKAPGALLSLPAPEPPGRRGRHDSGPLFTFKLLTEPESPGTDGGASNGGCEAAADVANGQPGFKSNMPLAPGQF

male C57BL/6J mice [7] = test: Locomotor activity, compound alone (open field); assay type: in vivo; details: 3 mg*kg^−1 s.c. (FIG. 3C)
male C57BL/6J mice [8] = test: (±)-DOI-elicited head twitch response; details: 1 mg*kg^−1 (±)-DOI s.c.; pretreatment s.c.; every dose tested (PIMA, (2S,4R)-2k 0.3 or 3 mg kg^−1; (2R,4R)-3h 3.0 or 5.6 mg kg^−1)
C322K^6.34 5-HT2AR = target: T6, C322K^6.34 5-HT2AR (Homo sapiens, UniProt P28223, C322K); test: IP1 accumulation assay, inverse agonism at constitutively activated receptor; assay type: cell-based
T6 construct: expressed in transfected cells; host or cells: clonal cells
Procedure: as §1

human wild-type 5-HT2B = human wild-type 5-HT2B (Homo sapiens, UniProt P41595); test: IP-One HTRF IP1 accumulation assay
α1A-adrenergic receptor = target: T7, α1A-adrenergic receptor (Homo sapiens, UniProt P35348)
T7 sequence (P35348 1-466): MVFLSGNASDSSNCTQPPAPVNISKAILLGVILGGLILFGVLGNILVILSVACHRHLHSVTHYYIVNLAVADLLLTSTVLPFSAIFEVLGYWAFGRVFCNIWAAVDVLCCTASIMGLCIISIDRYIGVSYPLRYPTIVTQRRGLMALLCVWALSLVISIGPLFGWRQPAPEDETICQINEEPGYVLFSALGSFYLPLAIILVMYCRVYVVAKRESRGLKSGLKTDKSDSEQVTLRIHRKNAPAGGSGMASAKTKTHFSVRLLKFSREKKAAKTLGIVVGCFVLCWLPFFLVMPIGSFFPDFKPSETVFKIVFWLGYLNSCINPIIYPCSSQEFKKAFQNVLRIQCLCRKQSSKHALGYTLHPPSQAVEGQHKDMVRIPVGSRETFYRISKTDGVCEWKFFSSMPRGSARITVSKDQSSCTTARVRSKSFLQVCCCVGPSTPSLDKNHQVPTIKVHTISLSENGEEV

5-HT7 = 5-HT7 (Homo sapiens, UniProt P34969); test: Radioligand binding, cell membranes; details: [^3H]5-CT; mean of n independent experiments
Procedure: as §1

D3 = D3 (Homo sapiens, UniProt P35462); test: Radioligand binding, cell membranes
Procedure: as §1

D2L = D2L (Homo sapiens, UniProt P14416); test: Radioligand binding, cell membranes; details: [^3H]spiperone; mean of n independent experiments
Procedure: as §1

5-HT1A = target: T8, 5-HT1A (Homo sapiens, UniProt P08908); test: Radioligand binding, cell membranes; details: [^3H]5-CT; mean of n independent experiments
T8 construct: host or cells: HEK293T, transient
T8 sequence (P08908 1-422): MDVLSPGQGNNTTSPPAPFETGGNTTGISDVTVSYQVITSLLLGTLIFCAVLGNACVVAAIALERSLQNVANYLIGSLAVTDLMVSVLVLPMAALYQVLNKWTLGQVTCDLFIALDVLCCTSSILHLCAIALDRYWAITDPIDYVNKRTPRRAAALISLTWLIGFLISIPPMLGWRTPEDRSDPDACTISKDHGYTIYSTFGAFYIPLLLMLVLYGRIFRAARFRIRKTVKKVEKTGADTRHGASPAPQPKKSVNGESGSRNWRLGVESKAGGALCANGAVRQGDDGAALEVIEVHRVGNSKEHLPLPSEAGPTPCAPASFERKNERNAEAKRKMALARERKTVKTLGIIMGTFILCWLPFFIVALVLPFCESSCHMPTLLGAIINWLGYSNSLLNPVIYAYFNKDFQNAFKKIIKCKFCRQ
Procedure: as §1

D231F^5.35 5-HT2AR = D231F^5.35 5-HT2AR (Homo sapiens, UniProt P28223, D231F); test: Exploratory saturation radioligand binding at point-mutated 5-HT2AR; details: membranes of transfected HEK293 cells (FIGS. 14A-14D)
[9] = displacement of [^3H]ketanserin, mean of n independent experiments, ± SD where n ≥ 5

T2 sequence (P41595 whole entry): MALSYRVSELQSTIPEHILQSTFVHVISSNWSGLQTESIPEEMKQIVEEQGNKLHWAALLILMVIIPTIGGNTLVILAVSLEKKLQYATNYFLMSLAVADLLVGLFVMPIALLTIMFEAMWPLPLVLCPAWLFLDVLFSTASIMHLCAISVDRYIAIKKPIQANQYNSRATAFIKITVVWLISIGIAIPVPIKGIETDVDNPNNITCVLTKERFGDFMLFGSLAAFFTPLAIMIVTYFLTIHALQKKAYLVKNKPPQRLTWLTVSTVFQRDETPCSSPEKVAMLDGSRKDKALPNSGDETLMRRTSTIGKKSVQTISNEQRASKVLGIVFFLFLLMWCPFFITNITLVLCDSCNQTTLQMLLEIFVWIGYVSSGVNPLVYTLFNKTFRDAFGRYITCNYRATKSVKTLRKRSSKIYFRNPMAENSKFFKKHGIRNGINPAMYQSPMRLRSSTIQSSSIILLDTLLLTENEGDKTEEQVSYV
human wild-type 5-HT2B, sequence (P41595 whole entry): as above
T4 sequence (P28223 whole entry): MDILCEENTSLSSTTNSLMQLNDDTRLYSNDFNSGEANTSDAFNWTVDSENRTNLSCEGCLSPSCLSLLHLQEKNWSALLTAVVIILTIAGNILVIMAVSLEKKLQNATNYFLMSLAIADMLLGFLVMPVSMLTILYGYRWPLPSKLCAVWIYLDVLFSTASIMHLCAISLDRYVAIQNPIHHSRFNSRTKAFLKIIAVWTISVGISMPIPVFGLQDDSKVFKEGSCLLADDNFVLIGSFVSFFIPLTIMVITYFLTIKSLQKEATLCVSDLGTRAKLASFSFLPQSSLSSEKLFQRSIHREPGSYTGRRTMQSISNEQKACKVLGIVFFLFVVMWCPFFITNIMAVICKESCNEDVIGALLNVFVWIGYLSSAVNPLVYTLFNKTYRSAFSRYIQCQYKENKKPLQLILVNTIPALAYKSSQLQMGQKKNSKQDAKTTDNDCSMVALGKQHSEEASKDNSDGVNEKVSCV
T3 sequence (P35367 whole entry): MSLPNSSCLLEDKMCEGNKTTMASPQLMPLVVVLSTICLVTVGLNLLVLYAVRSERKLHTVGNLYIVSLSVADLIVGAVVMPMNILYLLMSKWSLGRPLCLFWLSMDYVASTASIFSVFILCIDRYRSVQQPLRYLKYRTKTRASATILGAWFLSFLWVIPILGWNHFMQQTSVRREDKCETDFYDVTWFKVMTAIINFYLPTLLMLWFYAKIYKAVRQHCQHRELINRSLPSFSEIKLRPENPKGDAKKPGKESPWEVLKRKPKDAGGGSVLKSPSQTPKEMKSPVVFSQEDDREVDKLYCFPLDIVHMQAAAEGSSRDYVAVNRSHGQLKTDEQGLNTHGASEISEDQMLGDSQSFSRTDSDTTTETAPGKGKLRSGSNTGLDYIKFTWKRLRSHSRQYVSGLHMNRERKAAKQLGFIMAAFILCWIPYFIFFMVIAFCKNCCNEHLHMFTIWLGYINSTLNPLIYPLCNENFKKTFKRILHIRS
D2L, sequence (P14416 whole entry): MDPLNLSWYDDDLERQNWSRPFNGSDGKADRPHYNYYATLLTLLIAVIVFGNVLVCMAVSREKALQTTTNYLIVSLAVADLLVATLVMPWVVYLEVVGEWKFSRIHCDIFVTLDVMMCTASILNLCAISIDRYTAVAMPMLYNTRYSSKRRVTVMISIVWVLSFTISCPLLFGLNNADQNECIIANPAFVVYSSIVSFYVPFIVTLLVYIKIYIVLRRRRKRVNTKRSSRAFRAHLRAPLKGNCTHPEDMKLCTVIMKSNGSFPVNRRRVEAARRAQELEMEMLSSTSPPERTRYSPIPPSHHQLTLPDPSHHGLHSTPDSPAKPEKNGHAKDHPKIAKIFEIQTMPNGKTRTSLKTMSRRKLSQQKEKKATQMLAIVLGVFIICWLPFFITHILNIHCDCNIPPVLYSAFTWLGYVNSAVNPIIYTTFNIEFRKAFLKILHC
T6 sequence (P28223 whole entry C322K): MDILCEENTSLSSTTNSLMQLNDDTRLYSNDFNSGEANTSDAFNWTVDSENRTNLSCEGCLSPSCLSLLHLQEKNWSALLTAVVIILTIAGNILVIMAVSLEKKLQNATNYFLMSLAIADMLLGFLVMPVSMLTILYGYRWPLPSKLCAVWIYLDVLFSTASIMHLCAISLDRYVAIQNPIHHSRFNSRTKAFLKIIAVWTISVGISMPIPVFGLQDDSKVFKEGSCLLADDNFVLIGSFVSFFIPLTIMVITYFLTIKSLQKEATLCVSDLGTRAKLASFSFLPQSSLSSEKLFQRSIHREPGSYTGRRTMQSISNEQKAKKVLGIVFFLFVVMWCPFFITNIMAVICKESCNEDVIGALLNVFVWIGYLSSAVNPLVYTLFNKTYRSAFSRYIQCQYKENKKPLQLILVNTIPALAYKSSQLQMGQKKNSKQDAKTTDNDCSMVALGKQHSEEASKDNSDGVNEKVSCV
D231F^5.35 5-HT2AR, sequence (P28223 whole entry D231F): as the sequence (P28223 whole entry C322K) above, with D231F, K322C counted along it
5-HT7, sequence (P34969 1-445 isoform P34969-2): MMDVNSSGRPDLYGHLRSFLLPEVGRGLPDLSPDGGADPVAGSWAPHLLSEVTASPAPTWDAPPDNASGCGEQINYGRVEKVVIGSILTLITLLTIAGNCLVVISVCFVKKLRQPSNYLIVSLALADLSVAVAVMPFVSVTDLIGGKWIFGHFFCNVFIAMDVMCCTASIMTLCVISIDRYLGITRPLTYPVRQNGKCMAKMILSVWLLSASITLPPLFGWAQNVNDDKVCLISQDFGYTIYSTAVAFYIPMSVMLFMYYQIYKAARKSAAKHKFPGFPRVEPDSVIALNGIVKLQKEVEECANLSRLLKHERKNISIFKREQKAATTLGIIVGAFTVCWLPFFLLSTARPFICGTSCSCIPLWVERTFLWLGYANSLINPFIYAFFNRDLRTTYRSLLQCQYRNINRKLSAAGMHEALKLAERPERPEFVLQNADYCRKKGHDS
D3, sequence (P35462 whole entry): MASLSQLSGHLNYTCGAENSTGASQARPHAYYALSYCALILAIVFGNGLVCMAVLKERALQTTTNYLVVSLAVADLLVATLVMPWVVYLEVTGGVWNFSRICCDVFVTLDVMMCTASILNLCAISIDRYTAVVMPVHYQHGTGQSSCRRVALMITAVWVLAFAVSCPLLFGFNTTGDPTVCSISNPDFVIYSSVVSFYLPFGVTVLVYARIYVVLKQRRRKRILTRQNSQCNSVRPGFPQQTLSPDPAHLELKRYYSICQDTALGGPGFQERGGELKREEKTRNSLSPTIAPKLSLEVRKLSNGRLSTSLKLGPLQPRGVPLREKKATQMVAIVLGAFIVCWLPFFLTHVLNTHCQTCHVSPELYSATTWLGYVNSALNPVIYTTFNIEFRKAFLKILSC

CN(C)[C@@H]1Cc2ccccc2[C@@H](c2cccc(-c3cccs3)c2)C1 (single isomer, unassigned) [(2S,4R)-2c, Trans-4-(3-(thiophen-2-yl)phenyl)-N,N-dimethyl-1,2,3,4-tetrahydronaphthalen-2-amine]
IC50 (human wild-type 5-HT2C): 0.251 µM
inverse agonist efficacy (Imax) at 5-HT2CRs (human wild-type 5-HT2C; below basal): 58%
Ki (5-HT2CR [1]): 0.0038 µM
Ki (5-HT2BR [2]): 0.0794 µM
Ki (5-HT2CR [3]; pKi at the 5-HT2CR, single experiment excluded from the reported data, excluded: excessive or incomplete radioligand displacement): 0.000832 µM
Ki (H1R; read-out: pKi H1R (converted)): 0.00115 µM
Ki (5-HT2AR): 0.00214 µM

CN(C)[C@@H]1Cc2ccccc2[C@H](c2cccc(-c3ccccc3F)c2)C1 (single isomer, unassigned) [(2R,4R)-3g, Cis-4-(2′-fluoro-[1,1′-biphenyl]-3-yl)-N,N-dimethyl-1,2,3,4-tetrahydronaphthalen-2-amine]
pKi H1R (H1R): 6.93^(2) 7.02-6.84 8.75^(4) 9.1-8.62 ND 6.54^(2) 6.67-6.40
Ki (5-HT2AR; [9]): 0.00204 µM
pKi 5-HT2BR (5-HT2BR [4]): 7.36^(2) 7.36-7.35 7.09^(3) 7.23-6.90 6.53^(3) 6.71-6.30 6.33^(2) 6.49-6.17

CN(C)[C@@H]1Cc2ccccc2[C@H](c2cccc(-c3ccncc3)c2)C1 (single isomer, unassigned) [(2R,4R)-3e, Cis-4-(3-(pyridin-4-yl)phenyl)-N,N-dimethyl-1,2,3,4-tetrahydronaphthalen-2-amine]
pKi 5-HT2CR (5-HT2CR [3]): 5.90^(2) 5.99-5.80 7.37^(3) 7.44-7.27 5.61^(2) 5.69-5.54 6.26^(2) 6.42-6.10
Ki (H1R; pKi H1R, displacement of [^3H]mepyramine, mean of n independent experiments, ± SD where n ≥ 5): 0.0224 µM
Ki (5-HT2AR; [9]): 0.0437 µM

CN(C)[C@@H]1Cc2ccccc2[C@H](c2cccc(-c3ccccc3)c2)C1 [(2S,4S)-3f, (2S,4S)-cis-4-([1,1′-biphenyl]-3-yl)-N,N-dimethyl-1,2,3,4-tetrahydronaphthalen-2-amine]
Ki (5-HT2CR [5]): 0.151 µM
Ki (5-HT2BR [6]): 0.407 µM

CN(C)[C@@H]1Cc2ccccc2[C@H](c2cccc(-c3ccncc3)c2)C1 (single isomer, unassigned) [(2S,4S)-3e, Cis-4-(3-(pyridin-4-yl)phenyl)-N,N-dimethyl-1,2,3,4-tetrahydronaphthalen-2-amine]
pKi 5-HT2CR (5-HT2CR [3]): 5.90^(2) 5.99-5.80 7.37^(3) 7.44-7.27 5.61^(2) 5.69-5.54 6.26^(2) 6.42-6.10
pKi 5-HT2AR (5-HT2AR): 6.06^(2) 6.14-5.98 8.13^(3) 8.51-7.82 5.81^(2) 6.01-5.62 7.36^(2) 7.48-7.24

CN(C)[C@@H]1Cc2ccccc2[C@H](c2cccc(Br)c2)C1 (single isomer, unassigned) [(2S,4S)-3a, Cis-4-(3-bromophenyl)-N, N-dimethyl-1,2,3,4-tetrahydronaphthalen-2-amine]
Ki (5-HT2BR [2]): 0.389 µM
pKi 5-HT2CR (5-HT2CR [3]): 6.71^(3) 6.93-6.47 7.24^(4) 7.44-7.06
pKi 5-HT2AR (5-HT2AR): 6.40^(2) 6.41-6.40 7.50^(3) 7.74-7.33

CN(C)c1ccc(-c2cccc([C@H]3C[C@H](N(C)C)Cc4ccccc43)c2)cc1 [(2S,4R)-2k, Trans-4-(4′-(dimethylamino)-[1,1′-biphenyl]-3-yl)-N,N-dimethyl-1,2,3,4-tetra-hydronaph-thalen-2-amine]
inverse agonist efficacy (Imax) at 5-HT2CRs (human wild-type 5-HT2C): ~75%
Ki (α1B-adrenergic receptor): 0.646 µM
locomotor activity, compound administered alone (male C57BL/6J mice [7]): preserving general locomotor ability
head twitch response elicited by (±)-DOI (male C57BL/6J mice [8]): significantly attenuated the head twitch response
inverse agonist efficacy at C322K^6.34 5-HT2ARs (reduction of basal IP1 accumulation) (C322K^6.34 5-HT2AR): ~60%
pKb at 5-HT2BRs (human wild-type 5-HT2B): 5.59±0.50
partial agonist efficacy at 5-HT2BRs, exploratory screening (human wild-type 5-HT2B; 10 μM ligand, change from basal IP1 normalized to 5-HT (FIG. 2A)): ~13 % 5-HT
agonist activity at 5-HT2BRs, full concentration-response (human wild-type 5-HT2B; FIG. 7A): did not reach statistical significance
Ki (α1A-adrenergic receptor): 0.617 µM
Ki (5-HT2BR [4]; pKi at the 5-HT2BR, single experiment excluded from the reported data, excluded: excessive or incomplete radioligand displacement): 0.0479 µM
pKi 5-HT7 (5-HT7): 6.28^(3)
pKi D3 (D3): 6.92^(3)
pKi D2L (D2L): 5.70^(3)
pKi 5-HT1A (5-HT1A): 5.58^(3)
Ki (5-HT2BR [6]): 0.0794 µM

CN(C)[C@H]1Cc2ccccc2[C@H](c2cccc(-c3cccs3)c2)C1 [(2R,4S)-2c, (2R,4S)-trans-4-(3-(thiophen-2-yl)phenyl)-N,N-dimethyl-1,2,3,4-tetrahydronaphthalen-2-amine]
agonist activity at 5-HT2CRs, concentration-response (human wild-type 5-HT2C; FIG. 7B): no consistent effect on IP1-accumulation
Ki (5-HT2CR [5]): 0.0331 µM
pKi H1R (H1R): 6.90
Ki (5-HT2AR): 0.0195 µM
Ki (5-HT2BR [6]): 0.214 µM

O=C(CCCN1CCC2(CC1)C(=O)NCN2c1ccccc1)c1ccc(F)cc1 [[^3H]Spiperone]
specific binding to D231F^5.35 5-HT2ARs (D231F^5.35 5-HT2AR): no specific binding is detected

CN(C)[C@@H]1Cc2ccccc2[C@@H](c2cccc(-c3ccncc3)c2)C1 (single isomer, unassigned) [(2R,4S)-2e, Trans-4-(3-(pyridin-4-yl)phenyl)-N,N-dimethyl-1,2,3,4-tetrahydronaphthalen-2-amine]
pKi 5-HT2CR (5-HT2CR [3]): 5.90^(2) 5.99-5.80 7.37^(3) 7.44-7.27 5.61^(2) 5.69-5.54 6.26^(2) 6.42-6.10
pKi 5-HT2AR (5-HT2AR): 6.06^(2) 6.14-5.98 8.13^(3) 8.51-7.82 5.81^(2) 6.01-5.62 7.36^(2) 7.48-7.24
